Values joined by “and” are separate entries in the source; they are usually repeats but may differ in a detail not shown here. Equal entries are not always repeated.
Legend:
[1] = Cholesterol, TG, NEFA and glycerol in serum and liver; assay type: in vivo, mouse; design: liver NEFA, Mean 2 (group mean) / Plasma VLDL cholesterol in db/db mice (VLDL-C) / Plasma VLDL cholesterol in db/db mice, group mean / TC in liver_CT2KO (total cholesterol in the liver of CRTC2-KO) / TC in liver_WT (total cholesterol in the liver) / TC in liver_WT, mean / TC in liver_WT, Mean Diff. VEH vs. drug / TC in liver_CRTC2KO, mean / TC in liver_CRTC2KO, Mean Diff. VEH vs. drug: unit not given here; conditions: liver, individual animals, Supp.fig.5d
Method: Serum total cholesterol (TC), LDL cholesterol (LDL-C), and HDL cholesterol (HDL-C) levels were detected using commercial kits (Beihua, China), and serum VLDL protein was determined by ELISA (Jiancheng, China).
The plasma TG and NEFA levels were determined using corresponding kits from Beihua (China) and WAKO (Japan), respectively. The TG levels of liver and WAT were tested by TG kit (Applygene, China). The NEFA in the liver and WAT were extracted by chloroform–methanol and then subjected to NEFA assay (WAKO).

[2] = test system: tissue mRNA levels; experiment: Quantitative PCR of tissue gene expression in treated mice; assay type: in vivo, mouse; conditions: for Mean Diff. (Veh. vs. treated; head of the quantity not shown, section just before Figure 7h): Met 200mg/kg or APC-20; for Lxra mRNA level: Figure 7g right, Met 200mg/kg, single animals
Method: Total RNA from cells and tissues was extracted by Trizol (Invitrogen) and reverse-transcribed into cDNA using the prime script RT reagent kit with gDNA eraser (Takara). The mRNA levels were determined using the SYBR-green PCR kit (Takara) with ABIPRISM 7900HT Sequence detector (ABI) according to the manufacturer’s protocol. The quantitative qPCR primers used in this work are listed in Supplementary Table 1. Ribosomal L32 mRNA levels were used as an internal control.

[3] = target: T1, CREB-CRTC2 interaction (Homo sapiens, UniProt P16220); experiment: CREB–CRTC2 mammalian two-hybrid assay (GAL4-Luc reporter); assay type: cell-based; conditions: for Relative Gal4-LUC activity, single replicates: Figure 1f, CREB-CRTC2 two-hybrid assay, DMSO control about 100; for reporter activity of CREB–CRTC2 two-hybrid assay: HEK293T, isolated compound 25 μM
T1 construct: expressed in transfected cells; host or cells: HEK293T
T1 sequence (P16220 whole entry, the tested form may be a part): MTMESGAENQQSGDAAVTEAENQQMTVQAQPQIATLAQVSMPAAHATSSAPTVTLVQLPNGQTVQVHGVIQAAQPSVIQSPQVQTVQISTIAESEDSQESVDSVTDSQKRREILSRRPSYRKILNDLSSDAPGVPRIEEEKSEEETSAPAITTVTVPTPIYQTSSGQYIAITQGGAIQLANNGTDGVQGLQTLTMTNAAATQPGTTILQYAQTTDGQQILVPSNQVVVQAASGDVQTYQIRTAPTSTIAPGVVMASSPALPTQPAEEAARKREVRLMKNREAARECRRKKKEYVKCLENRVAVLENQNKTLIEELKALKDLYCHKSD

| SMILES | Relative Gal4-LUC activity, single replicates [3] | further results |
| --- | --- | --- |
| CN(C)C(=N)NC(=N)N [Met] | – | TC in liver_CT2KO (total cholesterol in the liver of CRTC2-KO) ([1]; CRTC2-KO mice): 69.3199 and 58.5752 and 53.7207 and 41.7006 and 49.9498 and 60.0658; TC in liver_WT (total cholesterol in the liver) ([1]; WT mice): 51.5785 and 54.6034 and 57.0386 and 53.1363 and 64.5936 and 53.9126; Mean Diff. (Veh. vs. treated; head of the quantity not shown, section just before Figure 7h) ([2]; CRTC2KO mice): -0.1815; Lxra mRNA level ([2]; Crtc2KO mice): 0.8758 and 0.8882 and 0.7033 and 0.8771 and 1.013; Lxra mRNA level ([2]; WT mice): 1.062 and 1.197 and 0.4513 and 1.258 and 0.814; Mean Diff. (Veh. vs. treated; head of the quantity not shown, section just before Figure 7h) ([2]; WT mice): 0.07313 |
| CC(C)=CCc1cc(/C=C/C(=O)O)ccc1O [P2, drupanin] | 61.0304 and 51.9945 and 58.5603 | reporter activity of CREB–CRTC2 two-hybrid assay [3]: significantly inhibited |
| O=C(/C=C/c1ccc(O)cc1)OCc1ccccc1 [P5, (E)-p-coumaric acid benzyl ester] | 49.3178 and 78.5049 and 35.7022 | reporter activity of CREB–CRTC2 two-hybrid assay [3]: significantly inhibited |
| CC(C)=CCc1cc(/C=C/C(=O)O)cc(C/C=C(\C)CO)c1O [P7, capillartemisin A] | 126.493 and 128.204 and 133.801 | – |
| O=C(O)/C=C/c1ccc(O)c(O)c1 [P9, (E)-caffeic acid] | 57.5791 and 77.7251 and 73.1602 | – |
| CCOC(=O)/C=C/c1ccc(O)c(O)c1 [P10, (E)-caffeic acid ethyl ester] | 123.291 and 121.37 and 118.215 | – |
| CC1(C)C=Cc2cc(C=CC(=O)O)ccc2O1 [P11, 2,2-dimethylchromene-6-propenoic acid] | 49.0084 and 29.9945 and 36.8575 | – |
| O=c1c(O)c(-c2ccc(O)c(O)c2)oc2cc(O)cc(O)c12 [P14, quercetin] | 130.988 and 153.776 and 136.769 | – |
| COc1ccc(-c2oc3cc(O)c(O)c(O)c3c(=O)c2OC)cc1 [P17, 5,6,7,-trihydroxy-3,4′-dimethoxyflavone] | 79.2706 and 131.512 and 110.674 | – |

Further lines, with some results ahead:

| Relative Gal4-LUC activity, single replicates [3] | SMILES | further results |
| --- | --- | --- |
| 70.496 and 71.1658 and 69.3726 | O=C(O)/C=C/c1ccc(O)cc1 [P1, (E)-p-coumaric acid] | reporter activity of CREB–CRTC2 two-hybrid assay [3]: significantly inhibited |
| 73.7017 and 114.823 and 172.832 | O=c1c(O)c(-c2ccc(O)cc2)oc2cc(O)cc(O)c12 [P12, kaempferol] | – |
| 126.299 and 72.1957 and 55.4453 | COc1ccc(-c2oc3cc(O)cc(O)c3c(=O)c2O)cc1 [P13, kaempferide] | – |
| 91.5539 and 105.994 and 143.876 | COc1c(O)cc2oc(-c3ccc(O)cc3)c(O)c(=O)c2c1O [P15, 6-methoxykaempferol] | – |
| 48.4823 and 30.8552 and 26.2372 | COc1ccc(-c2oc3cc(O)c(OC)c(O)c3c(=O)c2O)cc1 [P16, betuletol] | – |
| 63.0454 and 51.143 and 49.1354 | O=C1C[C@@H](c2ccccc2)Oc2cc(O)cc(O)c21 [P18, pinocembrin] | – |
| 126.871 and 59.3858 and 61.7309 | O=C1c2c(O)cc(O)cc2O[C@H](c2ccc(O)cc2)[C@H]1O [P20, aromadendrin] | – |
| 44.892 and 54.8815 and 50.4357 | COc1ccc(C2Oc3cc(O)cc(O)c3C(=O)C2O)cc1 (stereo not shown) [P21, dihydrokaempferide] | – |

Reference: paper PMC8752738, “A propolis-derived small molecule ameliorates metabolic syndrome in obese mice by targeting the CREB/CRTC2 transcriptional complex” (Nature Communications, 2022)
